# Measurements from patent US12077503B2, “Substituted cyclic amides and their use as herbicides” (FMC CORPORATION, priority 2015, dated 2024).
# Tests used:
# Format in all cases: in vivo
# [1] = test system: Galium (catchweed bedstraw, Galium aparine); test: Test C postemergence; conditions: scale 0 to 100, 0 no effect, 100 complete control
# How it was run: (§1)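 Greenhouse test: seeds in a loam and sand blend treated preemergence, or seedlings at the 1- to 4-leaf stage (2 to 18 cm) in a peat, vermiculite and limestone mix treated postemergence, with test chemicals in a surfactant-containing non-phytotoxic solvent. Scored by eye at 13 to 15 d relative to controls, 0 (no effect) to 100 (complete control).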
# [2] = test system: blackgrass (Alopecurus myosuroides); test: Test C postemergence; conditions: scale 0 to 100, 0 no effect, 100 complete control
# How it was run: as §1
# corn (Zea mays) = test: Test C postemergence; conditions: scale 0 to 100, 0 no effect, 100 complete control
# How it was run: as §1
# [3] = test system: crabgrass, large (large crabgrass, Digitaria sanguinalis); test: Test C postemergence; conditions: scale 0 to 100, 0 no effect, 100 complete control
# How it was run: as §1
# [4] = test system: johnsongrass (Sorghum halepense); test: Test C postemergence; conditions: scale 0 to 100, 0 no effect, 100 complete control
# How it was run: as §1
# [5] = test system: lambsquarters (Chenopodium album); test: Test C postemergence; conditions: scale 0 to 100, 0 no effect, 100 complete control
# How it was run: as §1
# [6] = test system: morningglory (Ipomoea coccinea); test: Test C postemergence; conditions: scale 0 to 100, 0 no effect, 100 complete control
# How it was run: as §1
# [7] = test system: nutsedge, yellow (yellow nutsedge, Cyperus esculentus); test: Test C postemergence; conditions: scale 0 to 100, 0 no effect, 100 complete control
# How it was run: as §1
# [8] = test system: oat, wild (wild oat, Avena fatua); test: Test C postemergence; conditions: scale 0 to 100, 0 no effect, 100 complete control
# How it was run: as §1
# [9] = test system: oilseed rape (Brassica napus); test: Test C postemergence; conditions: scale 0 to 100, 0 no effect, 100 complete control
# How it was run: as §1
# [10] = test system: pigweed (Amaranthus retroflexus); test: Test C postemergence; conditions: scale 0 to 100, 0 no effect, 100 complete control
# How it was run: as §1
# [11] = test system: ryegrass, Italian (Italian ryegrass, Lolium multiflorum); test: Test C postemergence; conditions: scale 0 to 100, 0 no effect, 100 complete control
# How it was run: as §1
# [12] = test system: redstem (purple redstem, Ammannia coccinea); test: Test F flooded paddy test; conditions: Flood
# From the text: (§2) Plant species in the flooded paddy test consisted of one stand of 9 or 10 water seeded rice seedlings (Rice, W. S. Jap, Oryza sativa cv. ‘Japonica—M202’ or Rice, W. S. Ind, ‘Indica’), and two stands of 3 or 4 transplanted rice seedlings (Oryza sativa cv. ‘Japonica—M202’), Monochoria (Monochoria vaginalis), sedge, umbrella (small-flower umbrella sedge, Cyperus difformis), hardstem bulrush (Scirpus juncoides), redstem (purple redstem, Ammannia coccinea), rice flatsedge (Cyperus iria), bearded sprangletop (Leptochloa fascicularis), barnyardgrass (Echinochloa crus-galli), waterplantain (common waterplantain, Alisma plantago-aquatica), and late watergrass (Echinochloa oryzicola) grown to the 2 to 2.5 leaf stage for testing. Potted plants were grown in a greenhouse with day/night temperature settings of 30/27° C., and supplemental balanced lighting was provided to maintain a 16-hour photoperiod. At time of treatment, test pots were flooded to 3 cm above the soil surface, treated by application of test compounds directly to the paddy water, and then maintained at that water depth for the duration of the test. Effects of treatments on rice and weeds were visually evaluated by comparison to untreated controls after 21 d. Plant response ratings, summarized in Table F, are based on a scale of 0 to 100 where 0 is no effect and 100 is complete control. A dash (-) response means no test result.
# [13] = test system: waterplantain (common waterplantain, Alisma plantago-aquatica); test: Test F flooded paddy test; conditions: Flood
# From the text: as §2
smiles,measurement,setting,value
"CN1C[C@H](c2ccc(F)c(F)c2)[C@@H](C(=O)Nc2cccc(F)c2F)C1=O [Compound 639, (3S,4S)—N-(2,3-difluorophenyl)-4-(3,4-difluorophenyl)-1-methyl-2-oxo-3-pyrrolidinecarboxamide]","Plant response rating, Galium",[1]; 31 g ai/ha,50
same,"Plant response rating, Galium",[1]; 62 g ai/ha,50
same,"Plant response rating, Galium",[1]; 125 g ai/ha,70
same,"Plant response rating, Galium",[1]; 250 g ai/ha,70
same,"Plant response rating, Blackgrass",[2]; 31 g ai/ha,0
same,"Plant response rating, Blackgrass",[2]; 62 g ai/ha,0
same,"Plant response rating, Blackgrass",[2]; 125 g ai/ha,5
same,"Plant response rating, Blackgrass",[2]; 250 g ai/ha,10
same,"Plant response rating, Corn",corn (Zea mays); 31 g ai/ha,0
same,"Plant response rating, Corn",corn (Zea mays); 62 g ai/ha,0
same,"Plant response rating, Corn",corn (Zea mays); 125 g ai/ha,0
same,"Plant response rating, Corn",corn (Zea mays); 250 g ai/ha,35
same,"Plant response rating, Crabgrass, Large",[3]; 31 g ai/ha,60
same,"Plant response rating, Crabgrass, Large",[3]; 62 g ai/ha,70
same,"Plant response rating, Crabgrass, Large",[3]; 125 g ai/ha,70
same,"Plant response rating, Crabgrass, Large",[3]; 250 g ai/ha,80
same,"Plant response rating, Johnsongrass",[4]; 31 g ai/ha,0
same,"Plant response rating, Johnsongrass",[4]; 62 g ai/ha,0
same,"Plant response rating, Johnsongrass",[4]; 125 g ai/ha,0
same,"Plant response rating, Johnsongrass",[4]; 250 g ai/ha,0
same,"Plant response rating, Lambsquarters",[5]; 31 g ai/ha,40
same,"Plant response rating, Lambsquarters",[5]; 62 g ai/ha,75
same,"Plant response rating, Lambsquarters",[5]; 125 g ai/ha,65
same,"Plant response rating, Lambsquarters",[5]; 250 g ai/ha,70
same,"Plant response rating, Morningglory",[6]; 31 g ai/ha,30
same,"Plant response rating, Morningglory",[6]; 62 g ai/ha,25
same,"Plant response rating, Morningglory",[6]; 125 g ai/ha,60
same,"Plant response rating, Morningglory",[6]; 250 g ai/ha,75
same,"Plant response rating, Nutsedge, Yellow",[7]; 31 g ai/ha,0
same,"Plant response rating, Nutsedge, Yellow",[7]; 62 g ai/ha,0
same,"Plant response rating, Nutsedge, Yellow",[7]; 125 g ai/ha,0
same,"Plant response rating, Nutsedge, Yellow",[7]; 250 g ai/ha,10
same,"Plant response rating, Oat, Wild",[8]; 31 g ai/ha,0
same,"Plant response rating, Oat, Wild",[8]; 62 g ai/ha,0
same,"Plant response rating, Oat, Wild",[8]; 125 g ai/ha,0
same,"Plant response rating, Oat, Wild",[8]; 250 g ai/ha,0
same,"Plant response rating, Oilseed Rape",[9]; 31 g ai/ha,30
same,"Plant response rating, Oilseed Rape",[9]; 62 g ai/ha,30
same,"Plant response rating, Oilseed Rape",[9]; 125 g ai/ha,40
same,"Plant response rating, Oilseed Rape",[9]; 250 g ai/ha,50
same,"Plant response rating, Pigweed",[10]; 31 g ai/ha,10
same,"Plant response rating, Pigweed",[10]; 62 g ai/ha,45
same,"Plant response rating, Pigweed",[10]; 125 g ai/ha,40
same,"Plant response rating, Pigweed",[10]; 250 g ai/ha,45
same,"Plant response rating, Ryegrass, Italian",[11]; 31 g ai/ha,0
same,"Plant response rating, Ryegrass, Italian",[11]; 62 g ai/ha,0
same,"Plant response rating, Ryegrass, Italian",[11]; 125 g ai/ha,5
same,"Plant response rating, Ryegrass, Italian",[11]; 250 g ai/ha,10
same,Plant response rating: Redstem,[12]; 32 g ai/ha,0
same,Plant response rating: Redstem,[12]; 64 g ai/ha,0
same,Plant response rating: Redstem,[12]; 125 g ai/ha,0
same,Plant response rating: Redstem,[12]; 250 g ai/ha,30
same,Plant response rating: Waterplantain,[13]; 32 g ai/ha,80
same,Plant response rating: Waterplantain,[13]; 64 g ai/ha,80
same,Plant response rating: Waterplantain,[13]; 125 g ai/ha,98
same,Plant response rating: Waterplantain,[13]; 250 g ai/ha,100
